The results in this text go back to PMC6968383, “Design, synthesis, in vitro and in vivo evaluation of benzylpiperidine-linked 1,3-dimethylbenzimidazolinones as cholinesterase inhibitors against Alzheimer’s disease” (Journal of Enzyme Inhibition and Medicinal Chemistry, 2019).

Test [1] deals with T1, AChE (EC 3.1.1.7) from electric eel (Electrophorus electricus, UniProt O42275).
T1 construct: purchased Sigma-Aldrich
Put plainly: biochemical. It is filed as biochemical. To be noted: for inhibition at 100 µM: read-out: AChE IR (inhibitory rate); for SI (selectivity index = AChE IC50/BChE IC50): eeAChE IC50 / eqBChE IC50. As for the experimental part: (§1) The data were expressed as IC50 values (Table 1).
(§2) The inhibitory activities of the target compounds towards AChE (from Electrophorus electricus (electric eeAChE, Sigma-Aldrich) and horse serum BChE (eqBChE, Sigma-Aldrich) or human AChE – huAChE; human BuChE – huBuChE (huAChE, huBuChE, Sigma-Aldrich) were measured by Ellman’s method. In 96-well plates, a mixture of phosphate buffer (0.1 M, pH 8.0, […]), 5,5′-dithiobis-2-nitrobenzoic acid (DTNB, 60 µL), acetylcholinestrase or butyrylcholinesterase (20 µL, 5 IU/mL) and different concentration of the compound solution (30 µL) was pre-incubated for 5 min followed by the addition of the substrate (acetylthiocholine iodide or butyrylthiocholine iodide, 20 µL). […] The measurement of each concentration for each compound was detected in triplicate. GraphPad Prism 6.0 (GraphPad Software, Inc., La Jolla, CA) was used for data processing. The inhibition curve was fitted by plotting percentage enzyme activity (100% for the reference) versus the logarithm of the concentration of tested compound. The half-maximal inhibitory concentration (IC50) values were calculated according to the inhibition curve and the data were shown in the layout of mean ± SEM by GraphPad Prism 6.0.

The target in test [2] is T2, BChE (EC 3.1.1.8) from horse serum (Equus caballus, UniProt P81908).
T2 construct: horse serum BChE (eqBChE, Sigma-Aldrich); purchased Sigma-Aldrich; host or cells: horse serum
T2 sequence (P81908 whole entry): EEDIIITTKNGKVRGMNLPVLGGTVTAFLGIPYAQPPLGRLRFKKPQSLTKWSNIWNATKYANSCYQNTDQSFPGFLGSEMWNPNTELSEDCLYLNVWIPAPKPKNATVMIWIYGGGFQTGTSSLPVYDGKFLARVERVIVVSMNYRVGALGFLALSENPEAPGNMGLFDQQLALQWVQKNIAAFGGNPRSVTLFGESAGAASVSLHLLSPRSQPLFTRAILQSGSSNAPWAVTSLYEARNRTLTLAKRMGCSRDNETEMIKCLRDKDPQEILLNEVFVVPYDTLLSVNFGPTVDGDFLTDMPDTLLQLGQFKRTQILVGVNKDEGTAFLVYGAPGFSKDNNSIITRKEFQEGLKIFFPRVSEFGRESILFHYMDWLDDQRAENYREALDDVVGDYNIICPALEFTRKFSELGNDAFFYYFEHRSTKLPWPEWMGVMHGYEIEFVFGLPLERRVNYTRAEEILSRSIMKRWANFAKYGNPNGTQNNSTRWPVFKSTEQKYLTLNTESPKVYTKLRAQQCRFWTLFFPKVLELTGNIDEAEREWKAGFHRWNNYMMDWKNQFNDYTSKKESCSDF
Put plainly: biochemical. As to conditions: for inhibition at 100 µM: compound at 100 μM, read-out: BChE IR (inhibitory rate). As for the experimental part:
as §1, §2

The mark [3] stands for this setting: eeAChE, mean ± SEM of triplicate independent experiments, read-out: AChE IC50.
Setting [4] is: eqBChE, mean ± SEM of triplicate independent experiments, read-out: BChE IC50.

Each structure is given as a SMILES string. Like-named read-outs stand apart in the source and are kept apart here.

Usually IC50 stands for the concentration at which inhibition is half-maximal.

T1 sequence (O42275 24-633): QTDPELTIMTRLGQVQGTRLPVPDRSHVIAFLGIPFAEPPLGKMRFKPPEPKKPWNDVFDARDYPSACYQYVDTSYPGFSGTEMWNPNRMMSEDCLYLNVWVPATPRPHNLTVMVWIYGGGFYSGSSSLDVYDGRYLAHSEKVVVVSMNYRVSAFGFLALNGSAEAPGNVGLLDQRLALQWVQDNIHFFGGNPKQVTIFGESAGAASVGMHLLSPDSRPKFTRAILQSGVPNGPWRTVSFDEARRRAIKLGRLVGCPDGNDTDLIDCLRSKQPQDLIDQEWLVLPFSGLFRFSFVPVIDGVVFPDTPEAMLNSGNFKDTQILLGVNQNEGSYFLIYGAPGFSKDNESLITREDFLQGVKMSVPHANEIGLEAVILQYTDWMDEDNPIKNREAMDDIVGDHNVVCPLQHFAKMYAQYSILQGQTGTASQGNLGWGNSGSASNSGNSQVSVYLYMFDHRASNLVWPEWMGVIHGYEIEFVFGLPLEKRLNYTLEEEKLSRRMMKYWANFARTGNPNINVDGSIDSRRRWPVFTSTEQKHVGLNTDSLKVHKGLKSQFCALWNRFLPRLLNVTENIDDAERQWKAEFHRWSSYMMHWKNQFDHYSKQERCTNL

For the compound `Cn1c(=O)n(C)c2cc(C(=O)NCC3CCN(Cc4ccccc4)CC3)ccc21` [Compound 9a, N-((1-benzylpiperidin-4-yl)methyl)-1,3-dimethyl-2-oxo-2,3-dihydro-1H-benzo[d]imidazole-5-carboxamide], the IC50 in test [1] (setting [3]) was 3.14 ± 1.12 µM. Further, the inhibition at 100 µM in test [2] (eqBChE) is 43.9%.

Take `Cc1ccccc1CN1CCC(CNC(=O)c2ccc3c(c2)n(C)c(=O)n3C)CC1` [Compound 9b, 1,3-dimethyl-N-((1–(2-methylbenzyl)piperidin-4-yl)methyl)-2-oxo-2,3-dihydro-1H-benzo[d]imidazole-5-carboxamide]: the IC50 in test [1] (setting [3]) is 8.08 ± 2.66 µM. Besides, in test [2] (eqBChE), the inhibition at 100 µM worked out at 41.4%.

`Cc1cccc(CN2CCC(CNC(=O)c3ccc4c(c3)n(C)c(=O)n4C)CC2)c1` [Compound 9c, 1,3-dimethyl-N-((1–(3-methylbenzyl)piperidin-4-yl)methyl)-2-oxo-2,3-dihydro-1H-benzo[d]imidazole-5-carboxamide]: the IC50 in test [1] (setting [3]) amounted to 3.83 ± 2.04 µM. In addition, the inhibition at 100 µM in test [2] (eqBChE) came to 44%.

With `Cc1ccc(CN2CCC(CNC(=O)c3ccc4c(c3)n(C)c(=O)n4C)CC2)cc1` [Compound 9d, 1,3-dimethyl-N-((1–(4-methylbenzyl)piperidin-4-yl)methyl)-2-oxo-2,3-dihydro-1H-benzo[d]imidazole-5-carboxamide], the IC50 in test [1] (setting [3]) was 25.7 ± 12.3 µM. Moreover, in test [2] (eqBChE), the inhibition at 100 µM was found to be 37.8%.

For the compound `Cc1ccc(CN2CCC(CNC(=O)c3ccc4c(c3)n(C)c(=O)n4C)CC2)cc1C` [Compound 9e, N-((1–(3,4-dimethylbenzyl)piperidin-4-yl)methyl)-1,3-dimethyl-2-oxo-2,3-dihydro-1H-benzo[d]imidazole-5-carboxamide], the IC50 in test [1] (setting [3]) was 9.97 ± 2.52 µM. Further, the inhibition at 100 µM in test [2] (eqBChE) came to 30.8%.

In the case of `COc1cccc(CN2CCC(CNC(=O)c3ccc4c(c3)n(C)c(=O)n4C)CC2)c1` [Compound 9f, N-((1–(3-methoxybenzyl)piperidin-4-yl)methyl)-1,3-dimethyl-2-oxo-2,3-dihydro-1H-benzo[d]imidazole-5-carboxamide], the inhibition at 100 µM is 33.5% in test [1] and 25% in test [2] (eqBChE).

For the compound `COc1ccc(CN2CCC(CNC(=O)c3ccc4c(c3)n(C)c(=O)n4C)CC2)cc1` [Compound 9g, N-((1–(4-methoxybenzyl)piperidin-4-yl)methyl)-1,3-dimethyl-2-oxo-2,3-dihydro-1H-benzo[d]imidazole-5-carboxamide], the IC50 in test [1] (setting [3]) was determined as 5.17 ± 2.25 µM. Besides, the inhibition at 100 µM in test [2] (eqBChE) was 41.5%.

Consider `Cn1c(=O)n(C)c2cc(C(=O)NCC3CCN(Cc4ccccc4F)CC3)ccc21` [Compound 9h, N-((1–(2-fluorobenzyl)piperidin-4-yl)methyl)-1,3-dimethyl-2-oxo-2,3-dihydro-1H-benzo[d]imidazole-5-carboxamide], for which, in test [1] (setting [3]), the IC50 was determined as 16.2 ± 4.34 µM. For the same compound, the inhibition at 100 µM in test [2] (eqBChE) is 30%.

Take `Cn1c(=O)n(C)c2cc(C(=O)NCC3CCN(Cc4cccc(F)c4)CC3)ccc21` [Compound 9i, N-((1–(3-fluorobenzyl)piperidin-4-yl)methyl)-1,3-dimethyl-2-oxo-2,3-dihydro-1H-benzo[d]imidazole-5-carboxamide]: the IC50 in test [1] (setting [3]) stood at 2.93 ± 1.96 µM; in test [2] (setting [4]), 95.1 ± 59.3 µM.

As for `Cn1c(=O)n(C)c2cc(C(=O)NCC3CCN(Cc4ccc(F)cc4)CC3)ccc21` [Compound 9j, N-((1–(4-fluorobenzyl)piperidin-4-yl)methyl)-1,3-dimethyl-2-oxo-2,3-dihydro-1H-benzo[d]imidazole-5-carboxamide], the “SI (selectivity index = AChE IC50/BChE IC50)” value in test [1] is 1.27. Moreover, the results for the IC50 in test [1] (setting [3]) and in test [2] (setting [4]) were 4.7 ± 2.01 µM and 3.71 ± 1.88 µM, respectively.

Turning to `Cn1c(=O)n(C)c2cc(C(=O)NCC3CCN(Cc4ccccc4Cl)CC3)ccc21` [Compound 9k, N-((1–(2-chlorobenzyl)piperidin-4-yl)methyl)-1,3-dimethyl-2-oxo-2,3-dihydro-1H-benzo[d]imidazole-5-carboxamide], in test [1] (setting [3]), the IC50 was 3.92 ± 1.2 µM. Besides, the inhibition at 100 µM in test [2] (eqBChE) was found to be 46.5%.

`Cn1c(=O)n(C)c2cc(C(=O)NCC3CCN(Cc4cccc(Cl)c4)CC3)ccc21` [Compound 9l, N-((1–(3-chlorobenzyl)piperidin-4-yl)methyl)-1,3-dimethyl-2-oxo-2,3-dihydro-1H-benzo[d]imidazole-5-carboxamide]: the IC50 in test [1] (setting [3]) came to 6 ± 3.31 µM. Moreover, the inhibition at 100 µM in test [2] (eqBChE) was determined as 36.9%.

`Cn1c(=O)n(C)c2cc(C(=O)NCC3CCN(Cc4ccc(Cl)cc4)CC3)ccc21` [Compound 9m, N-((1–(4-chlorobenzyl)piperidin-4-yl)methyl)-1,3-dimethyl-2-oxo-2,3-dihydro-1H-benzo[d]imidazole-5-carboxamide]: the “fold increase of inhibitory activity towards AChE compared to 9a” value in test [1] (eeAChE) amounted to 15 fold. In addition, the IC50 in test [1] (setting [3]) came out at 0.21 ± 0.03 µM. The inhibition at 100 µM in test [2] (eqBChE) was determined as 49.9%.

As for `Cn1c(=O)n(C)c2cc(C(=O)NCC3CCN(Cc4ccccc4Br)CC3)ccc21` [Compound 9n, N-((1–(2-bromobenzyl)piperidin-4-yl)methyl)-1,3-dimethyl-2-oxo-2,3-dihydro-1H-benzo[d]imidazole-5-carboxamide], the IC50 in test [1] (setting [3]) was found to be 8.87 ± 4.56 µM. Besides, the inhibition at 100 µM in test [2] (eqBChE) was determined as 43.5%.

`Cn1c(=O)n(C)c2cc(C(=O)NCC3CCN(Cc4cccc(Br)c4)CC3)ccc21` [Compound 9o, N-((1–(3-bromobenzyl)piperidin-4-yl)methyl)-1,3-dimethyl-2-oxo-2,3-dihydro-1H-benzo[d]imidazole-5-carboxamide]: the IC50 in test [1] (setting [3]) worked out at 3.69 ± 1.83 µM. Besides, the inhibition at 100 µM in test [2] (eqBChE) was 42.8%.

`Cn1c(=O)n(C)c2cc(C(=O)NCC3CCN(Cc4ccc(Br)cc4)CC3)ccc21` [Compound 9p, N-((1–(4-bromobenzyl)piperidin-4-yl)methyl)-1,3-dimethyl-2-oxo-2,3-dihydro-1H-benzo[d]imidazole-5-carboxamide]: in test [1] (setting [3]), the IC50 is 11.1 ± 6.42 µM. For the same compound, the inhibition at 100 µM in test [2] (eqBChE) was determined as 38.5%.

On to `COc1ccc(CN2CCC(CNC(=O)c3ccc4[nH]ccc4c3)CC2)cc1` [Compound 11a, N-((1–(4-methoxybenzyl)piperidin-4-yl)methyl)-1H-indole-5-carboxamide], for which, in test [1], half-maximal inhibition (IC50) was put at 38.1 ± 12.8 µM and the “SI (selectivity index = AChE IC50/BChE IC50)” value was 3.54. For the same compound, the IC50 in test [2] came out at 10.8 ± 5.55 µM.

Turning to `COc1ccc(CN2CCC(CNC(=O)c3ccc4[nH]ncc4c3)CC2)cc1` [Compound 11b, N-((1–(4-methoxybenzyl)piperidin-4-yl)methyl)-1H-indazole-5-carboxamide], the figures for the inhibition at 100 µM in test [1] and in test [2] (eqBChE) were 48.6% and 44.6%, respectively.

`O=C(NCC1CCN(Cc2ccccc2Cl)CC1)c1ccc2[nH]ncc2c1` [Compound 11c, N-((1–(2-chlorobenzyl)piperidin-4-yl)methyl)-1H-indazole-5-carboxamide]: the IC50 in test [1] turned out to be 5.44 ± 2.22 µM; in test [2], 21.3 ± 5 µM. Moreover, the “SI (selectivity index = AChE IC50/BChE IC50)” value in test [1] is given as 0.26.

`COc1ccc(CN2CCC(CNC(=O)c3ccc4[nH]cnc4c3)CC2)cc1` [Compound 11d, N-((1–(4-methoxybenzyl)piperidin-4-yl)methyl)-1H-benzo[d]imidazole-5-carboxamide]: the results for the inhibition at 100 µM in test [1] and in test [2] (eqBChE) were 18.8% and 16.5%, respectively.

`O=C(NCC1CCN(Cc2ccccc2Cl)CC1)c1ccc2[nH]cnc2c1` [Compound 11e, N-((1–(2-chlorobenzyl)piperidin-4-yl)methyl)-1H-benzo[d]imidazole-5-carboxamide] came in with an IC50 in test [1] of 7.48 ± 3.1 µM. Further, in test [2] (eqBChE), the inhibition at 100 µM came to 42.1%.

In test [1], `O=C(NCC1CCN(Cc2ccccc2)CC1)c1ccc2[nH]nnc2c1` [Compound 11f, N-((1-benzylpiperidin-4-yl)methyl)-1H-benzo[d][1,2,3]triazole-5-carboxamide] yielded an IC50 of 0.46 ± 0.4 µM. Also, the inhibition at 100 µM in test [2] (eqBChE) came out at 43.1%.

As to `Cn1c(=O)n(C)c2cc(S(=O)(=O)NCC3CCN(Cc4ccccc4)CC3)ccc21` [Compound 15a, N-((1-benzylpiperidin-4-yl)methyl)-1,3-dimethyl-2-oxo-2,3-dihydro-1H-benzo[d]imidazole-5-sulphonamide], in test [1], the “SI (selectivity index = AChE IC50/BChE IC50)” value was 0.84. Further, the results for the IC50 in test [1] (setting [3]) and in test [2] (setting [4]) were 0.38 ± 0.08 µM and 0.45 ± 0.02 µM, respectively.

Take `Cc1cccc(CN2CCC(CNS(=O)(=O)c3ccc4c(c3)n(C)c(=O)n4C)CC2)c1` [Compound 15c, 1,3-dimethyl-N-((1–(3-methylbenzyl)piperidin-4-yl)methyl)-2-oxo-2,3-dihydro-1H-benzo[d]imidazole-5-sulphonamide]: in test [1], the “SI (selectivity index = AChE IC50/BChE IC50)” value is on record as 1.14. The IC50 is 0.54 ± 0.14 µM in test [1] (setting [3]) and 0.47 ± 0.17 µM in test [2] (setting [4]).

As for `Cc1ccc(CN2CCC(CNS(=O)(=O)c3ccc4c(c3)n(C)c(=O)n4C)CC2)cc1` [Compound 15d, 1,3-dimethyl-N-((1–(4-methylbenzyl)piperidin-4-yl)methyl)-2-oxo-2,3-dihydro-1H-benzo[d]imidazole-5-sulphonamide], the “SI (selectivity index = AChE IC50/BChE IC50)” value in test [1] was 0.24. In addition, the IC50 was 24.8 ± 3.48 µM in test [1] (setting [3]) and 100 ± 22.1 µM in test [2] (setting [4]).
